This passage reports IC50 results from article PMC10920428 (Applied Microbiology and Biotechnology, 2024).

The experiment deals with T1, homogentisate solanesyltransferase (CrHST) (Chlamydomonas reinhardtii, UniProt A1JHN0).
T1 construct: gene HST; N-terminal GST tag (pDEST15), expressed in E. coli BL21 AI
Nature of the experiment: biochemical.

T1 sequence (A1JHN0 51-370): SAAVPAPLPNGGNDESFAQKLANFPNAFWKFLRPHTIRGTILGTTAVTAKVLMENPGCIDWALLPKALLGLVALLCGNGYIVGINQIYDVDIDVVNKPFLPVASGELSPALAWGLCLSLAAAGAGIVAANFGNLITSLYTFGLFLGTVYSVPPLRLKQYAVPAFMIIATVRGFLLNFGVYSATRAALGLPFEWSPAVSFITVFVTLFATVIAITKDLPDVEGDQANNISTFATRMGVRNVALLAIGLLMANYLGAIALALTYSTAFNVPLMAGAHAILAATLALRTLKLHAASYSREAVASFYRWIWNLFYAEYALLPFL

What is called IC50 is the midpoint of a concentration-inhibition curve. A higher IC50 goes with weaker potency in that assay. Consider `Cc1cccc(C2CC2)c1Oc1nnc(Cl)cc1O` [DMC, Des-Morpholinocarbony Cyclopyrimorate], for which half-maximal inhibition (IC50) required 3.63 ± 0.53 µM.
